Experimental data published in PMC8060913, “The Calcium-Activated Chloride Channel TMEM16A is Inhibitied by Liquiritigenin” (Frontiers in Pharmacology, 2021).
pIC50: −log10 of the molar value. Read-outs that look alike come from different tables or passages of the source. One block for each compound: values may come before it.

Tests used:
Assay type in all cases: cell-based
[1] = target: T1, human TMEM16A (hTMEM16A, anoctamin 1) (Homo sapiens, UniProt Q5XXA6); experiment: whole-cell patch-clamp in transfected HEK293T cells, % inhibition at […], +[…] mV; details: HEK-293T
T1 construct: gene ANO1; untagged complete CDS
T1 sequence (Q5XXA6 1-986): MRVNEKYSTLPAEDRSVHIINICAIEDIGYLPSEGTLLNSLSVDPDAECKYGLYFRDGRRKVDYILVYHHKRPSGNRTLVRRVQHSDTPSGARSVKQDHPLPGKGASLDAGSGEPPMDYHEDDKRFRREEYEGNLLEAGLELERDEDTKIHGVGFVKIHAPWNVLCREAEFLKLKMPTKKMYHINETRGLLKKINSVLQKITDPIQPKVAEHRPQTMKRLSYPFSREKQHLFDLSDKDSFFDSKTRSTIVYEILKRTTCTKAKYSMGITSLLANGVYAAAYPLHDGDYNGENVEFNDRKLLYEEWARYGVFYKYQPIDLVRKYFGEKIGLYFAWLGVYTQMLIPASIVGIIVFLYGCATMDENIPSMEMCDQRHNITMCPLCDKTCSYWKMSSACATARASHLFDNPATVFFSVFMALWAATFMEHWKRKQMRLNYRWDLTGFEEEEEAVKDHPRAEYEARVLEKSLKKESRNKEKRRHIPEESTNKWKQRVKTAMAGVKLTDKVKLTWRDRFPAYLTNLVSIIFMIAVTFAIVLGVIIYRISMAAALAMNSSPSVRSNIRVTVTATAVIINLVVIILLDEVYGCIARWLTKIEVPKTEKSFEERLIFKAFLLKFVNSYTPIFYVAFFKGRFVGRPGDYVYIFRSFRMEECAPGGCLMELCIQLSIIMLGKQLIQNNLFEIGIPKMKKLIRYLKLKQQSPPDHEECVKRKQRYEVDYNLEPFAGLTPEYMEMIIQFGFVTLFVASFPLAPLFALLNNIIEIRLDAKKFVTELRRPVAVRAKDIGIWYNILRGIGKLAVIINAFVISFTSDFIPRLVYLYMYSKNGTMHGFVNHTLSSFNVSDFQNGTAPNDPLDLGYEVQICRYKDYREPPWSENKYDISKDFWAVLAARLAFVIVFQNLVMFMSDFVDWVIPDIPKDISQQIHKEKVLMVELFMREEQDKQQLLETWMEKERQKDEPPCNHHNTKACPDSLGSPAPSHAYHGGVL

[2] = target: T2, mouse TMEM16A (mTMEM16A, anoctamin 1) (Mus musculus, UniProt Q8BHY3); experiment: as above; details: HEK-293T
T2 construct: gene Ano1
T2 sequence (Q8BHY3 1-960): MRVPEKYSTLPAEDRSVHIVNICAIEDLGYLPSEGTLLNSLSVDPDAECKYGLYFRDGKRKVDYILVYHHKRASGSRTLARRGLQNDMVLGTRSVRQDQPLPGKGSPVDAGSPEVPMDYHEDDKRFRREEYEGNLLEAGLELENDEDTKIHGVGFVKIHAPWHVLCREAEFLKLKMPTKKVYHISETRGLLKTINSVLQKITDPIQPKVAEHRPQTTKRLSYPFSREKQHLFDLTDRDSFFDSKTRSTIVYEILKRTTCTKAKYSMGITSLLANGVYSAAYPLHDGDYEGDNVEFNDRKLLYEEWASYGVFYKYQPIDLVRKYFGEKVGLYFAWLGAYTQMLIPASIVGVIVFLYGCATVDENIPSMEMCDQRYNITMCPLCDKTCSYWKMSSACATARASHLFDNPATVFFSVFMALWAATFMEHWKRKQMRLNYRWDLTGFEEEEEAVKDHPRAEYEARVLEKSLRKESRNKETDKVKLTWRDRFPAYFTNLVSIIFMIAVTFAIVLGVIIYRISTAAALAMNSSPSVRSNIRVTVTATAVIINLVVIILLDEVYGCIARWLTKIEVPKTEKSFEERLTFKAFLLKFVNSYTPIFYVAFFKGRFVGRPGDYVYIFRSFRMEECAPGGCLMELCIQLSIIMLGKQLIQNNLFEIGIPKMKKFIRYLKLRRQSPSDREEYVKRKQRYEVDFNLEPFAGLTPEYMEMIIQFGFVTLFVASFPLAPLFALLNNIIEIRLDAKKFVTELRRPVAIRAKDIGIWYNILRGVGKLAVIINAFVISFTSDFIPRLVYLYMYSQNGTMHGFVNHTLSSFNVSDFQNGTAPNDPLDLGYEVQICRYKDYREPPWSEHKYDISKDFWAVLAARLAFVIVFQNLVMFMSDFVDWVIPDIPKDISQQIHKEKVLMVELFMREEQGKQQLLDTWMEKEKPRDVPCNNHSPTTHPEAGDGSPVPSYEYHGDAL

[3] = target: T2, mouse TMEM16A (mTMEM16A, anoctamin 1); experiment: whole-cell patch-clamp in transfected HEK293T cells, +[…] mV
[4] = target: T1, human TMEM16A (hTMEM16A, anoctamin 1); experiment: as above

- inhibition at 100 µM [1]: 43.5%
- inhibition at 100 µM [2]: 56.8%
SMILES: C[C@]12CC[C@@H]3c4ccc(O)cc4CC[C@H]3[C@@H]1C[C@@H](O)[C@@H]2O [E3, estriol]

- pIC50 ([3]; read-out: IC50): 3.75
- pIC50 ([4]; read-out: IC50): 3.60
SMILES: O=C1c2ccc(O)cc2OCC1c1ccc(O)cc1 (stereo not drawn) [dihydrodaidzein]

SMILES: O=C1C[C@@H](c2ccc(O)cc2)Oc2cc(O)ccc21 [liquiritigenin]
- pIC50 [3]: 4.67
- pIC50 [4]: 4.89
